Laboratory results reported in patent US20190290759A1, “COMBINATION OF HDAC INHIBITOR AND ANTI-PD-L1 ANTIBODY FOR TREATMENT OF OVARIAN CANCER” (Syndax Pharmaceuticals, Inc., priority 2015, published 2019).
Each block holds one molecule with its values, some of them ahead of it.

Assays:
[1] = test system: HLA-ABC on NCI-H441 carcinoma cells; experiment: Cell-surface HLA-ABC expression by flow cytometry, NCI-H441; format: cell-based, human; conditions: NCI-H441 (lung), vorinostat 3 μM 5 h daily x4 days or entinostat 500 nM 72 h; for HLA-ABC % Positive: DMSO controls 99.9 / 99.9; for HLA-ABC MFI: DMSO controls 1182 / 1232
[2] = test system: HLA-ABC on NCI-H460 carcinoma cells; experiment: Cell-surface HLA-ABC expression by flow cytometry, NCI-H460; format: cell-based, human; conditions: NCI-H460 (lung), vorinostat 3 μM 5 h daily x4 days or entinostat 500 nM 72 h; for HLA-ABC % Positive: DMSO controls 86.6 / 99.2; for HLA-ABC MFI: DMSO controls 371 / 822
[3] = test system: MICA/B on AsPC-1 carcinoma cells; experiment: Cell-surface MIC-A/B expression by flow cytometry, AsPC-1; format: cell-based, human; conditions: AsPC-1 (pancreas); vorinostat 3 μM 5 h daily x4 days or entinostat 500 nM 72 h; DMSO controls 1.9 / 1.4
[4] = test system: HLA-ABC on PC-3 carcinoma cells; experiment: Cell-surface HLA-ABC expression by flow cytometry, PC-3; format: cell-based, human; conditions: PC-3 (prostate), vorinostat 3 μM 5 h daily x4 days or entinostat 500 nM 72 h; for HLA-ABC % Positive: DMSO controls 99.8 / 99.9; for HLA-ABC MFI: DMSO controls 699 / 801
[5] = test system: MICA/B on PC-3 carcinoma cells; experiment: Cell-surface MIC-A/B expression by flow cytometry, PC-3; format: cell-based, human; conditions: PC-3 (prostate); vorinostat 3 μM 5 h daily x4 days or entinostat 500 nM 72 h; DMSO controls 33.2 / 43.7
[6] = test system: MICA/B on NCI-H441 carcinoma cells; experiment: Cell-surface MIC-A/B expression by flow cytometry, NCI-H441; format: cell-based, human; conditions: NCI-H441 (lung); vorinostat 3 μM 5 h daily x4 days or entinostat 500 nM 72 h; DMSO controls 23.5 / 16.7
[7] = test system: HLA-ABC on AsPC-1 carcinoma cells; experiment: Cell-surface HLA-ABC expression by flow cytometry, AsPC-1; format: cell-based, human; conditions: AsPC-1 (pancreas), vorinostat 3 μM 5 h daily x4 days or entinostat 500 nM 72 h; for HLA-ABC % Positive: DMSO controls 98.5 / 99.1; for HLA-ABC MFI: DMSO controls 625 / 670
[8] = in vivo; cited from earlier work
[9] = test system: PD-L1 on AsPC-1 carcinoma cells; experiment: Cell-surface PD-L1 expression by flow cytometry, AsPC-1; format: cell-based, human; conditions: AsPC-1 (pancreas), vorinostat 3 μM 5 h daily x4 days or entinostat 500 nM 72 h; for PD-L1 % Positive: DMSO controls 1.4 / 1.9; for PD-L1 MFI: DMSO controls 87.5 / 91.4
[10] = test system: host immune suppressor cells; conditions: preclinical models; cited from earlier work
[11] = test system: MICA/B on DU 145 carcinoma cells; experiment: Cell-surface MIC-A/B expression by flow cytometry, DU 145; format: cell-based, human; conditions: DU 145 (prostate); vorinostat 3 μM 5 h daily x4 days or entinostat 500 nM 72 h; DMSO controls 42.9 / 58.9
[12] = test system: MICA/B on NCI-H460 carcinoma cells; experiment: Cell-surface MIC-A/B expression by flow cytometry, NCI-H460; format: cell-based, human; conditions: NCI-H460 (lung); vorinostat 3 μM 5 h daily x4 days or entinostat 500 nM 72 h; DMSO controls 4.4 / 20.3
[13] = test system: PD-L1 on NCI-H460 carcinoma cells; experiment: Cell-surface PD-L1 expression by flow cytometry, NCI-H460; format: cell-based, human; conditions: NCI-H460 (lung), vorinostat 3 μM 5 h daily x4 days or entinostat 500 nM 72 h; for PD-L1 % Positive: DMSO controls 68.0 / 89.5; for PD-L1 MFI: DMSO controls 199 / 492
[14] = test system: PD-L1 on NCI-H441 carcinoma cells; experiment: Cell-surface PD-L1 expression by flow cytometry, NCI-H441; conditions: NCI-H441 (lung); vorinostat 3 μM 5 h daily x4 days or entinostat 500 nM 72 h; DMSO controls 958 / 1031
histone acetylation = conditions: following the administration of entinostat; cited from earlier work
[15] = test system: human lung and prostate carcinoma cells (DU 145, PC-3, NCI-H460, NCI-H441); experiment: Avelumab-mediated ADCC, 4 h 111In release assay with NK effectors; format: cell-based; conditions: cells pre-exposed to vorinostat 3 μM (5 h daily x4 days) or entinostat 500 nM (72 h) vs DMSO; avelumab 2 ng/mL; NK effectors E:T=30:1
Protocol: (§1) NK lysis was performed in the presence of avelumab or isotype control (2 ng/mL).
(§2) Results are presented as mean±S.E.M. from 3 replicate wells, and are representative of 2-4 independent experiments. […] For CD16 blocking, NK cells were pretreated for 2 h with anti-CD16 blocking antibody prior to being used as effectors. Results are presented as mean±S.E.M. from 3 replicate wells, and are representative of 2-4 independent experiments.

[16] = test system: PD-L1 on PC-3 carcinoma cells; experiment: Cell-surface PD-L1 expression by flow cytometry, PC-3; format: cell-based, human; conditions: PC-3 (prostate), vorinostat 3 μM 5 h daily x4 days or entinostat 500 nM 72 h; for PD-L1 % Positive: DMSO controls 74.1 / 55.8; for PD-L1 MFI: DMSO controls 207 / 146
[17] = test system: HLA-ABC on DU 145 carcinoma cells; experiment: Cell-surface HLA-ABC expression by flow cytometry, DU 145; format: cell-based, human; conditions: DU 145 (prostate), vorinostat 3 μM 5 h daily x4 days or entinostat 500 nM 72 h; for HLA-ABC % Positive: DMSO controls 100 / 100; for HLA-ABC MFI: DMSO controls 200 / 226
[18] = test system: PD-L1 in lung and prostate carcinoma xenografts (NCI-H460, PC-3, DU 145); experiment: Human xenografts, PD-L1 immunofluorescence; format: in vivo, nu/nu mice; conditions: vorinostat 150 mg/kg p.o. 4 daily doses, excised 24 h after last dose; entinostat 20 mg/kg p.o. single dose 72 h before excision; vs DMSO
Protocol: Female nu/nu mice were implanted with NCI-H460 (lung) or PC-3 (prostate) carcinoma cells. […] Frozen specimens were examined for cell-surface expression of PD-L1 by immunofluorescence using antihuman PD-L1 (clone SP142) and goat anti-rabbit AF594, and counterstained with DAPI-containing mounting medium.
Tumors were excised 24 h after the last dose. […] Frozen sections were examined for cell-surface expression of human PD-L1 by immunofluorescence. Confocal images are shown at 20× magnification and are representative of 3 animals/treatment. Relative PD-L1 expression levels were calculated using ImageJ software by normalizing the intensity values to their respective DMSO treated controls.

[19] = test system: PD-L1 on DU 145 carcinoma cells; experiment: Cell-surface PD-L1 expression by flow cytometry, DU 145; format: cell-based, human; conditions: DU 145 (prostate), vorinostat 3 μM 5 h daily x4 days or entinostat 500 nM 72 h; for PD-L1 % Positive: DMSO controls 76.3 / 81.4; for PD-L1 MFI: DMSO controls 200 / 226
in vitro = conditions: human, PC-3 prostate carcinoma cells
[20] = test system: NCI-H460 lung carcinoma cells; experiment: Avelumab-mediated NK lysis with CD16 blocking; format: cell-based, human; conditions: NK cells pretreated 2 h with anti-CD16 blocking antibody 12 μg/mL; targets exposed to vorinostat or DMSO; avelumab 2 ng/mL
Protocol: as §1
NK cells were pretreated for 2 h with anti-CD16 blocking antibody (12 μg/mL) prior to being used as effectors.
as §2

[21] = test system: whole PBMCs or dendritic cells isolated from PBMCs; conditions: cited from earlier work
[22] = test system: human carcinoma cell lines; conditions: cited from earlier work

- MIC-A/B % Positive [3]: 6.5%
- MIC-A/B % Positive [5]: 91.5%
- MIC-A/B % Positive [6]: 46.2%
- MIC-A/B % Positive [11]: 94.3%
- MIC-A/B % Positive [12]: 69.8%
Molecule: Nc1ccccc1NC(=O)c1ccc(CNC(=O)OCc2cccnc2)cc1 [Entinostat, N-(2-aminophenyl)-4-[N-(pyridine-3-yl)methoxycarbonylamino-methyl]-benzamide]
- HLA-ABC % Positive [1]: 99.9%
- HLA-ABC MFI [1]: 1375
- HLA-ABC % Positive [2]: 94.3%
- HLA-ABC MFI [2]: 547
- HLA-ABC % Positive [4]: 100%
- HLA-ABC MFI [4]: 1144
- HLA-ABC % Positive [7]: 99.0%
- HLA-ABC MFI [7]: 126
- half-life [8]: about 100 hours
- PD-L1 % Positive [9]: 9.9%
- PD-L1 MFI [9]: 126
- effect on host immune suppressor cells [10]: reduce the number of, and inhibit the function of, host immune suppressor cells
- PD-L1 % Positive [13]: 90.2%
- PD-L1 MFI [13]: 507
- PD-L1 MFI [14]: 1027
- persistence of changes in histone acetylation (histone acetylation): persist for several weeks
- Sensitivity of carcinoma cells to ADCC mediated by avelumab (NK-cell lysis) [15]: significantly increased sensitivity
- PD-L1 % Positive [16]: 86.4%
- PD-L1 MFI [16]: 240
- HLA-ABC % Positive [17]: 100%
- HLA-ABC MFI [17]: 705
- PD-L1 expression in vivo in xenografts (immunofluorescence) [18]: enhance PD-L1 expression
- PD-L1 % Positive [19]: 99.5%
- PD-L1 MFI [19]: 705

- MIC-A/B % Positive [3]: 0.8%
- MIC-A/B % Positive [5]: 58.1%
- MIC-A/B % Positive [6]: 21.1%
- MIC-A/B % Positive [11]: 93.9%
- MIC-A/B % Positive [12]: 70.6%
Molecule: O=C(CCCCCCC(=O)Nc1ccccc1)NO [Vorinostat]
- HLA-ABC % Positive [1]: 99.9%
- HLA-ABC MFI [1]: 1284
- HLA-ABC % Positive [2]: 97.1%
- HLA-ABC MFI [2]: 608
- HLA-ABC % Positive [4]: 99.7%
- HLA-ABC MFI [4]: 816
- HLA-ABC % Positive [7]: 99.2%
- HLA-ABC MFI [7]: 806
- PD-L1 % Positive [9]: 1.4%
- PD-L1 MFI [9]: 90.4
- PD-L1 % Positive [13]: 86.9%
- PD-L1 MFI [13]: 278
- viability (in vitro): 99%
- PD-L1 MFI [14]: 1053
- PD-L1 % Positive [16]: 83.3%
- PD-L1 MFI [16]: 251
- HLA-ABC % Positive [17]: 100%
- HLA-ABC MFI [17]: 354
- PD-L1 expression in vivo in xenografts (immunofluorescence) [18]: enhance PD-L1 expression
- PD-L1 % Positive [19]: 96.0%
- PD-L1 MFI [19]: 354

Molecule: avelumab: fully human anti-PD-L1 IgG1 antibody
- Avelumab-mediated lysis of carcinoma cells after CD16 neutralization [20]: decreased by CD16 neutralization
- lysis of PBMCs or dendritic cells in NK-mediated ADCC assays [21]: Little or no lysis
- human carcinoma cell lines in which ADCC was induced ([22]; PBMCs as effectors): 8 out of 18
- cell lines with augmented lysis after IFN-γ pretreatment ([22]; tumor cell lines pretreated with IFN-γ): 4 out of 10
